Consider 46 compounds from patent EP1611112B1, “ISOXAZOLE COMPOUNDS AS INHIBITORS OF HEAT SHOCK PROTEINS” (Vernalis (Cambridge) Limited, priority 2003, dated 2004).

The target in one experiment is T1, human full-length HSP90 (Homo sapiens, UniProt P08238).
T1 construct: E. coli expressed human full-length HSP90 protein; made in house; host or cells: E. coli
T1 sequence (P08238 whole entry): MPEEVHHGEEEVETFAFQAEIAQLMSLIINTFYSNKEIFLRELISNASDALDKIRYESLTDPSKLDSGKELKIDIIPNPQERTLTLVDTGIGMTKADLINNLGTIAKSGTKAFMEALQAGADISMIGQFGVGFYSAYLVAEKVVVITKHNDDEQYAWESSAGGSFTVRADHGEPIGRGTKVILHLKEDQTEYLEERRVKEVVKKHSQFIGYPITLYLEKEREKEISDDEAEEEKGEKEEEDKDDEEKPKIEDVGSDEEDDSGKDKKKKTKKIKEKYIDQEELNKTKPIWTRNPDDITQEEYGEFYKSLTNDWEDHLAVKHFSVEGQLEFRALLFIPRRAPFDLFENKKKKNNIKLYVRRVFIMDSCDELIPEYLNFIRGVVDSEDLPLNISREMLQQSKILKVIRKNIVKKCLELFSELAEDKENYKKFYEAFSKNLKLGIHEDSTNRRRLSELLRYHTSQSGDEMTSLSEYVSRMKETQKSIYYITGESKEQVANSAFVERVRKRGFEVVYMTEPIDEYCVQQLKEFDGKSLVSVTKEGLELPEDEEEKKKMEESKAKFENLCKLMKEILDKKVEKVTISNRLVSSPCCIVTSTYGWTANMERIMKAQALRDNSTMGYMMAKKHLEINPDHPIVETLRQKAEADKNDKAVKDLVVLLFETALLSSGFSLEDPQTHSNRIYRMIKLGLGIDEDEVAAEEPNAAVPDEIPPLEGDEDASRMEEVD
Briefly: Fluorescence Polarisation Assay (displacement of fluorescein-labelled probe RBT0045864-FAM). It counts as binding. The following applies: Fluorescence Polarisation Assay, activity range. An excerpt:
A Fluorescence Polarization_assay was also employed for the evaluation of some of the compounds of the Examples:
Fluorescence polarization {also known as fluorescence anisotropy} measures the rotation of a fluorescing species in solution, where the larger molecule the more polarized the fluorescence emission.
When the fluorophore is excited with polarized light, the emitted light is also polarized. The molecular size is proportional to the polarization of the fluorescence emission.
Test compound is added to the assay plate, left to equilibrate and the anisotropy measured again. Any change in anisotropy is due to competitive binding of compound to HSP90, thereby releasing probe.
Stored at room temperature. • 3) BSA (bovine serum albumen) 10 mg/ml (New England Biolabs # B9001S) • 4) 20 mM probe in 100 % DMSO stock concentration. Stored in the dark at RT. Working concentration is 200 nM diluted in AR water and stored at 4 °C.
1) Add 100µl 1x buffer to wells 11A and 12A (=FP BLNK) 2) Prepare assay mix - all reagents are kept on ice with a lid on the bucket as the probe is light-sensitive.
This gives 2.5 mM {50x} stock cpd - assuming cpds 20 mM. • 4) Repeat for wells A2 to A10. Control in columns 11 and 12. • 5) Transfer 5 µl from row A to row B- not column 12. Mix well. • 6) Transfer 5 µl from row B to row C. […] Add 2 µl of 100mM standard cpd to wells B12 - H12 {is positive control } • 13)The Z' factor is calculated from zero controls and positive wells.
(In general: In fluorescence polarisation assays a small probe gives low polarisation when free and higher when bound to something large.)
A word on the IC50: it is the concentration that gives 50% inhibition. In turn, `COc1ccc(-c2c(-c3cc(Br)c(O)cc3O)noc2C)cc1` [Example 76, 4-Bromo-6-[4-(4-methoxy-phenyl)-5-methyl-isoxazol-3-yl]-benzene-1,3-diol] registered an IC50 of less than 10 µM.

On to `Cc1nc(-c2c(-c3ccc(O)cc3O)noc2C(F)(F)F)cs1` [Example 76A], for which the IC50 was more than 10 µM.

As for `CCNC(=O)c1noc(-c2cc(C(C)(C)C)c(O)cc2O)c1-c1ccc(CN2CCOCC2)cc1` [Example 77, 5-(5-tert-Butyl-2,4-dihydroxy-phenyl)-4-(4-morpholin-4-ylmethyl-phenyl)-isoxazole-3-carboxylic acid ethylamide], the IC50 is less than 10 µM.

The same experiment, now with this note: table names no assay; parent examples tested in fluorescence polarization assay.
As to `CCNC(=O)c1noc(-c2cc(CCc3cccc(C)c3)c(O)cc2O)c1-c1ccc(CN2CCCCC2)cc1` [Example 75a], the IC50 is less than 10 µM.

`CCNC(=O)c1noc(-c2cc(-c3ccccc3)c(O)cc2O)c1-c1ccc(CN2CCCCC2)cc1` [Example 75b]: the IC50 was less than 10 µM.

For `CCNC(=O)c1noc(-c2cc(CCc3cccc(C)c3)c(O)cc2O)c1-c1ccc(CN2CCOCC2)cc1` [Example 75c], the IC50 was less than 10 µM.

Turning to `CCNC(=O)c1noc(-c2cc(-c3ccccc3F)c(O)cc2O)c1-c1ccc(CN2CCCCC2)cc1` [Example 75d], the IC50 is less than 10 µM.

On to `CCNC(=O)c1noc(-c2cc(CCc3cccc(F)c3)c(O)cc2O)c1-c1ccc(CN2CCCCC2)cc1` [Example 75e], for which the IC50 is less than 10 µM.

As for `CCNC(=O)c1noc(-c2cc(-c3ccccc3F)c(O)cc2O)c1-c1ccc(CN2CCOCC2)cc1` [Example 75f], the IC50 was less than 10 µM.

With `CCNC(=O)c1noc(-c2cc(-c3ccccc3F)c(O)cc2O)c1-c1ccc(CN2CCN(C)CC2)cc1` [Example 75g], the IC50 was less than 10 µM.

Turning to `CCNC(=O)c1noc(-c2cc(CCc3cccc(F)c3)c(O)cc2O)c1-c1ccc(CN(CC)CC)cc1` [Example 75h], the IC50 is less than 10 µM.

With `CCNC(=O)c1noc(-c2cc(-c3ccccc3C)c(O)cc2O)c1-c1ccc(CN2CCCCC2)cc1` [Example 75m], the IC50 was less than 10 µM.

Regarding `CCNC(=O)c1noc(-c2cc(-c3ccccc3)c(O)cc2O)c1-c1ccc(CN(CC)CC)cc1` [Example 75p], the IC50 was less than 10 µM.

On to `CCNC(=O)c1noc(-c2cc(-c3ccc(F)cc3)c(O)cc2O)c1-c1ccc(CN2CCN(C)CC2)cc1` [Example 75q], for which the IC50 is less than 10 µM.

Take `CCNC(=O)c1noc(-c2cc(-c3ccc(F)cc3)c(O)cc2O)c1-c1ccc(CN(CC)CC)cc1` [Example 75r]: the IC50 was less than 10 µM.

As to `CCNC(=O)c1noc(-c2cc(-c3ccccc3C)c(O)cc2O)c1-c1ccc(CN2CCN(C)CC2)cc1` [Example 75s], the IC50 is less than 10 µM.

Consider `CCNC(=O)c1noc(-c2cc(-c3ccccc3C)c(O)cc2O)c1-c1ccc(CN(CC)CC)cc1` [Example 75t], for which the IC50 is less than 10 µM.

Regarding `CCNC(=O)c1noc(-c2cc(-c3c(C)noc3C)c(O)cc2O)c1-c1ccc(CN2CCCCC2)cc1` [Example 75v], the IC50 is less than 10 µM.

As for `CCNC(=O)c1onc(-c2cc(Cl)c(O)cc2O)c1-c1ccc(OC)cc1` [Example 76B], the IC50 is less than 10 µM.

As to `CCNC(=O)c1onc(-c2cc(Cl)c(O)cc2O)c1-c1ccc(CN2CCOCC2)cc1` [Example 76C], the IC50 is less than 10 µM.

Regarding `CCNC(=O)c1noc(-c2cc(C(C)(C)C)c(O)cc2O)c1-c1ccc(CN2CCOCC2)cc1` [Example 77a], the IC50 is less than 10 µM.

As for `CCNC(=O)c1noc(-c2cc(C(C)(C)C)c(O)cc2O)c1-c1ccc(CN(CC)CC)cc1` [Example 77b], the IC50 is less than 10 µM.

For `CCNC(=O)c1noc(-c2cc(C(C)(C)C)c(O)cc2O)c1-c1ccc(CN2CCCCC2)cc1` [Example 77c], the IC50 was less than 10 µM.

`CCNC(=O)c1noc(-c2cc(C(C)(C)C)c(O)cc2O)c1-c1ccc(CN2CCN(C)CC2)cc1` [Example 77d]: the 50% inhibitory concentration (IC50) is less than 10 µM.

Turning to `CCNC(=O)c1noc(-c2cc(C(C)(C)C)c(O)cc2O)c1-c1ccc(F)cc1` [Example 77e], the half-maximal inhibitory concentration (IC50) is less than 10 µM.

`CCNC(=O)c1noc(-c2cc(C(C)(C)C)c(O)cc2O)c1-c1ccc(OC)cc1` [Example 77f]: the IC50 was less than 10 µM.

As for `CC(C)NC(=O)c1noc(-c2cc(C(C)C)c(O)cc2O)c1-c1ccc(CN2CCC(F)(F)CC2)cc1` [Example 78aa], the half-maximal inhibitory concentration (IC50) was less than 10 µM.

Turning to `CCNC(=O)c1noc(-c2cc(C(C)C)c(O)cc2O)c1-c1ccc(CNCC(F)(F)F)cc1` [Example 78ab], the IC50 was less than 10 µM.

Consider `CCNC(=O)c1noc(-c2cc(C(C)C)c(O)cc2O)c1-c1ccc(CN2CCC(F)(F)CC2)cc1` [Example 78ac], for which the IC50 is less than 10 µM.

For the compound `CCNC(=O)c1noc(-c2cc(C(C)C)c(O)cc2O)c1-c1ccc(CNCC(=O)NC(C)C)cc1` [Example 78ad], the IC50 is less than 10 µM.

With `CCNC(=O)c1noc(-c2cc(C(C)C)c(O)cc2O)c1-c1ccc(CN2CCC(N)CC2)cc1` [Example 78af], the IC50 is less than 10 µM.

`CCNC(=O)CNCc1ccc(-c2c(C(=O)NCC)noc2-c2cc(C(C)C)c(O)cc2O)cc1` [Example 78ah]: the half-maximal inhibitory concentration (IC50) is less than 10 µM.

`CCNC(=O)c1noc(-c2cc(C(C)C)c(O)cc2O)c1-c1ccc(CN(CC)CC)cc1` [Example 78b]: the IC50 is less than 10 µM.

In the case of `CCNC(=O)c1noc(-c2cc(C(C)C)c(O)cc2O)c1-c1ccc(CN2CCN(C)CC2)cc1` [Example 78c], the IC50 was less than 10 µM.

As for `CCNC(=O)c1noc(-c2cc(C(C)C)c(O)cc2O)c1-c1ccc(CNC(C)C)cc1` [Example 78e], the IC50 was less than 10 µM.

As to `CCNC(=O)c1noc(-c2cc(C(C)C)c(O)cc2O)c1-c1ccc(CNC(C)(C)C)cc1` [Example 78l], the IC50 is less than 10 µM.

In the case of `CCNC(=O)c1noc(-c2cc(C(C)C)c(O)cc2O)c1-c1ccc(CNCCOC)cc1` [Example 78m], the concentration for half-maximal inhibition (IC50) is less than 10 µM.

With `CCNC(=O)c1noc(-c2cc(C(C)C)c(O)cc2O)c1-c1ccc(CNCCN(CC)CC)cc1` [Example 78n], the 50% inhibitory concentration (IC50) was less than 10 µM.

Consider `CCNC(=O)c1noc(-c2cc(C(C)C)c(O)cc2O)c1-c1ccc(CN2CCNCC2)cc1` [Example 78p], for which the IC50 is less than 10 µM.

On to `CCNC(=O)c1noc(-c2cc(C(C)C)c(O)cc2O)c1-c1ccc(CNC2CCNCC2)cc1` [Example 78q], for which the IC50 is less than 10 µM.

With `CC(C)NC(=O)c1noc(-c2cc(C(C)C)c(O)cc2O)c1-c1ccc(CN2CCOCC2)cc1` [Example 78s], the IC50 is less than 10 µM.

With `CC(C)NC(=O)c1noc(-c2cc(C(C)C)c(O)cc2O)c1-c1ccc(CN2CCN(C)CC2)cc1` [Example 78t], the IC50 is less than 10 µM.

Consider `CCN(CC)Cc1ccc(-c2c(C(=O)NC(C)C)noc2-c2cc(C(C)C)c(O)cc2O)cc1` [Example 78u], for which the IC50 is less than 10 µM.

As to `CC(C)NC(=O)c1noc(-c2cc(C(C)C)c(O)cc2O)c1-c1ccc(CNC2CCCCC2)cc1` [Example 78w], the half-maximal inhibitory concentration (IC50) was less than 10 µM.

In the case of `CC(C)NC(=O)c1noc(-c2cc(C(C)C)c(O)cc2O)c1-c1ccc(CNC2CCCC2)cc1` [Example 78y], the IC50 is less than 10 µM.

For the compound `CC(C)NC(=O)c1noc(-c2cc(C(C)C)c(O)cc2O)c1-c1ccc(CNC(C)(C)C)cc1` [Example 78z], the concentration for half-maximal inhibition (IC50) was less than 10 µM.
